Values quoted from earlier work as cited in publication PMC5328943 (International journal of pharmaceutics, 2017).
≈ marks a conversion by molar mass, not a printed value.

Settings: with TPGS; ref Yu et al., 1999

Structure (SMILES): CC(C)CN(C[C@@H](O)[C@H](Cc1ccccc1)NC(=O)O[C@H]1CCOC1)S(=O)(=O)c1ccc(N)cc1 [amprenavir]
- solubility in water: 720 µg/mL (≈ 1420 µM)
